Experiments:
rKDM1A = target: T1, rKDM1A (Homo sapiens, UniProt O60341); assay: Kinetics of inhibition of KDM1A; assay type: biochemical; conditions: pure recombinant enzyme, H3K4me2 peptide
T1 construct: purchased BPS Bioscience 50100
Description: Time course experiments were performed to assess the rate of inhibition of demethylation of a H3K4me2 peptide mediated by rKDM1A, monitoring the release of H2O2 produced during the reaction using a coupled horseradish peroxidase assay using Amplex Red reagent as a substrate. Conditions were the same as for IC50 determinations, but all reagents were added simultaneously.

KDM1A = KDM1A (Homo sapiens, UniProt O60341); assay: MALDI-TOF mass spectrometry of FAD-ORY-2001 adducts; assay type: binding
Description: The sample was initially purified by reversed phase chromatography in a ZipTipC18 pipette tip (Millipore, USA) wet using column and equilibrated with 0.1% TFA. The sample was bound to the column by repeated aspiring and dispensing to achieve maximum binding. The ZipTip pipette tip was washed three times with 0.1% TFA and eluted in 4 µl. of 50 % ACN/ 0.1% TFA. 1 µl of eluted sample was loaded onto an AnchorChip MALDI target (Bruker, Germany); 2 µl. of matrix solution (0.3 mg/ml HCCA -alpha-cyano-4-hydroxycinamic acid in EtOH/acetone 2:1) was added and the mixture was allowed to dry at room temperature. The sample preparations were analyzed in an AutoFlex Speed MALDI TOF/TOF mass spectrometer (Bruker, Germany), equipped with a Nd:YAG laser. MS spectra were acquired in Reflector mode, with either positive or negative polarity. MSMS post source-decay fragmentation spectra of selected precursor ions were obtained using the LIFT module (Bruker, Germany).

(h)p300 = (h)p300 (Homo sapiens, UniProt Q09472); assay: Epigenetic selectivity profile; assay type: biochemical
Description: (§1) […]. MAO-A inhibition at 10 μM was 37%, in line with internal data.

DNMT1 (h) = DNMT1 (h) (Homo sapiens, UniProt P26358); assay: Epigenetic selectivity profile; assay type: biochemical
Description: as §1

DOT1L (h) = DOT1L (h) (Homo sapiens, UniProt Q8TEK3); assay: Epigenetic selectivity profile; assay type: biochemical
Description: as §1

FBXL10 (h) = FBXL10 (h) (Homo sapiens, UniProt Q8NHM5); assay: Epigenetic selectivity profile; assay type: biochemical
Sequence of FBXL10 (h) (Q8NHM5 whole entry): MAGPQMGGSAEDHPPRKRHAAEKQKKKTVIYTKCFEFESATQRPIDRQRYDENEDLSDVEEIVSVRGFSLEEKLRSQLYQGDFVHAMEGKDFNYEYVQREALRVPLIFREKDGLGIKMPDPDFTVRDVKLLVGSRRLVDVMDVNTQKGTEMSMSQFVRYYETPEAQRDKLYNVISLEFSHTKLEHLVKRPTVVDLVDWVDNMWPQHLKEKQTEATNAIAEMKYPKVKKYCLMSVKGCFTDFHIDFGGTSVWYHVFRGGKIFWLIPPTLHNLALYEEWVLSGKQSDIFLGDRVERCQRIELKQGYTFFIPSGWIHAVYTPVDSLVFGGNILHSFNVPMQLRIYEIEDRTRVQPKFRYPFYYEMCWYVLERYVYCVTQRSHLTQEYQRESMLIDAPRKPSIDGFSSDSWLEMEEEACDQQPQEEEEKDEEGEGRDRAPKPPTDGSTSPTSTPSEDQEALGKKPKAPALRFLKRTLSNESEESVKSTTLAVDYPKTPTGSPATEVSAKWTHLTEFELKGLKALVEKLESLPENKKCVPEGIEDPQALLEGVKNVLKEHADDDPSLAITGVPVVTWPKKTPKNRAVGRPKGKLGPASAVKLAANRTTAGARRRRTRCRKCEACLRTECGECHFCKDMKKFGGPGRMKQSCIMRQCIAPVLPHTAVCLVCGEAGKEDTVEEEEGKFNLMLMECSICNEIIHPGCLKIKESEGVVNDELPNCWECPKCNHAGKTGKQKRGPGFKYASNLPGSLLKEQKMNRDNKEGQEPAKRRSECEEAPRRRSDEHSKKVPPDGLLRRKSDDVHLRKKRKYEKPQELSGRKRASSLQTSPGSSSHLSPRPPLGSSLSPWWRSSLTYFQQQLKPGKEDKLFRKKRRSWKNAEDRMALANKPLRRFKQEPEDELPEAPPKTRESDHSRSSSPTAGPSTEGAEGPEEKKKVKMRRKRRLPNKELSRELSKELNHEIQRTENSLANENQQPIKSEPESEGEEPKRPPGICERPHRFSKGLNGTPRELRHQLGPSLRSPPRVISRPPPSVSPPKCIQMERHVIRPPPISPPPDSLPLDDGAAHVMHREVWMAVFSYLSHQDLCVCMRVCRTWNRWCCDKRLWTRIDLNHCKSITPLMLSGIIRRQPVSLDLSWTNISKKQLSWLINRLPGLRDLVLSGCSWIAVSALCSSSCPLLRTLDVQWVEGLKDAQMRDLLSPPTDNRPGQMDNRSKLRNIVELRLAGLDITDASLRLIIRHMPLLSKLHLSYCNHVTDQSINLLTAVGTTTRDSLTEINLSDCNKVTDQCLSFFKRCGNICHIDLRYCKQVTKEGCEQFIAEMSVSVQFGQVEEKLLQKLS
Description: as §1

HDAC11 (h) = HDAC11 (h) (Homo sapiens, UniProt Q96DB2); assay: Epigenetic selectivity profile; assay type: biochemical
Sequence of HDAC11 (h) (Q96DB2 whole entry): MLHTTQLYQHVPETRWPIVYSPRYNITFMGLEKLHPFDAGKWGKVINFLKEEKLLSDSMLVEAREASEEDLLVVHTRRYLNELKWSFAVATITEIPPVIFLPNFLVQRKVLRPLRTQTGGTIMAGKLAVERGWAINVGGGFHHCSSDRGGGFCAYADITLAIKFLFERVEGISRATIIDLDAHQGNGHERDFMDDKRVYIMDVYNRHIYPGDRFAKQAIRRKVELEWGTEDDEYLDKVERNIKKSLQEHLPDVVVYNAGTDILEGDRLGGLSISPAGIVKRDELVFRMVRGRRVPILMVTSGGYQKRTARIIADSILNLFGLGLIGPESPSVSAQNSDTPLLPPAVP
Description: as §1

HDAC3 (h) = HDAC3 (h) (Homo sapiens, UniProt O15379); assay: Epigenetic selectivity profile; assay type: biochemical
Description: as §1

HDAC4 (h) = HDAC4 (h) (Homo sapiens, UniProt P56524); assay: Epigenetic selectivity profile; assay type: biochemical
Description: as §1

HDAC6 (h) = HDAC6 (h) (Homo sapiens, UniProt Q9UBN7); assay: Epigenetic selectivity profile; assay type: biochemical
Description: as §1

JARID1A (h) = JARID1A (h) (Homo sapiens, UniProt P29375); assay: Epigenetic selectivity profile; assay type: biochemical
Sequence of JARID1A (h) (P29375 whole entry): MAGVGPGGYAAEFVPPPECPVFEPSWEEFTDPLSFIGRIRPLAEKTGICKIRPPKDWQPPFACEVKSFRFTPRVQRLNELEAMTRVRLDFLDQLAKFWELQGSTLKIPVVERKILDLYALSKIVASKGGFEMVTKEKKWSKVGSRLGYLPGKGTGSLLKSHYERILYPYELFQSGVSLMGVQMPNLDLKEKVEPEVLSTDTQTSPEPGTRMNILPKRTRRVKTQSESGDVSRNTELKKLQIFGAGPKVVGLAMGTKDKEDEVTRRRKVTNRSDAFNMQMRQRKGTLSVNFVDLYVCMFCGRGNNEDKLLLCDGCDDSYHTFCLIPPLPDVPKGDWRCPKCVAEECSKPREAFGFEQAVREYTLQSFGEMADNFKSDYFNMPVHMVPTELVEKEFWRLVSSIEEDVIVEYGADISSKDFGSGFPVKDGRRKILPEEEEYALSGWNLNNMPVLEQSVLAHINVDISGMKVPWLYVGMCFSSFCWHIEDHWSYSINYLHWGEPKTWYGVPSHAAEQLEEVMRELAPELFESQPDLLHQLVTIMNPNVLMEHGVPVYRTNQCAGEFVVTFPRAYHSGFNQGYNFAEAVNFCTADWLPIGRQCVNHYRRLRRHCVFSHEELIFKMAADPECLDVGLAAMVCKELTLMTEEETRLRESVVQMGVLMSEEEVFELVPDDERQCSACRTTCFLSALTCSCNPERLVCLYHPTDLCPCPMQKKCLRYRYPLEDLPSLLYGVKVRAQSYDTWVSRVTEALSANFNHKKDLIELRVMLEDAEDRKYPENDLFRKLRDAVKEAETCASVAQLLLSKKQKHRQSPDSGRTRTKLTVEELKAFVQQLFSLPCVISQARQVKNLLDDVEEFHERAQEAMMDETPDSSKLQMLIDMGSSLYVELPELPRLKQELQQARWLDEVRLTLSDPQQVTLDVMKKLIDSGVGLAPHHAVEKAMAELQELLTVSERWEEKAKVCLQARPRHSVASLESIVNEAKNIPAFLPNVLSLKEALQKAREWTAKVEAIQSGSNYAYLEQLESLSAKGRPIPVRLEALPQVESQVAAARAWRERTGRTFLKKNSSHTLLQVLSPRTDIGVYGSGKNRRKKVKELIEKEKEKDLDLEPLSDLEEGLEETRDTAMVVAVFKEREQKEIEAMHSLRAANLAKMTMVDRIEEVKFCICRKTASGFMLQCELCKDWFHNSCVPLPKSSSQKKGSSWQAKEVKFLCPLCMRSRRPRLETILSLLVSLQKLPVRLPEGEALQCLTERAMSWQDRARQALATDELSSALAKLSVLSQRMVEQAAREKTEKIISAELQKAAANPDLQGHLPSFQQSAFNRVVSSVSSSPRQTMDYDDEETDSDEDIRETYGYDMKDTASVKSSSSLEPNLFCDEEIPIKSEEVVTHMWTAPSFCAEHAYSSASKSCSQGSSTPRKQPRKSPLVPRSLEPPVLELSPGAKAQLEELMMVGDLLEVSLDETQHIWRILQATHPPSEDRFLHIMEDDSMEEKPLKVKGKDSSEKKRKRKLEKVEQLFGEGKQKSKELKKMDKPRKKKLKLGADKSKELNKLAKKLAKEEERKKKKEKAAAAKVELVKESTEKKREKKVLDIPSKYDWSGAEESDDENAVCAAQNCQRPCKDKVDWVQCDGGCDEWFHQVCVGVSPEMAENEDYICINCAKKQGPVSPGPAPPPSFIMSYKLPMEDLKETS
Description: as §1

JMJD1A (h) = JMJD1A (h) (Homo sapiens, UniProt Q9Y4C1); assay: Epigenetic selectivity profile; assay type: biochemical
Description: as §1

JMJD2A (h) = JMJD2A (h) (Homo sapiens, UniProt O75164); assay: Epigenetic selectivity profile; assay type: biochemical
Description: as §1

JMJD3 (h) = JMJD3 (h) (Homo sapiens, UniProt O15054); assay: Epigenetic selectivity profile; assay type: biochemical
Description: as §1

MLL complex (h) = MLL complex (h) (Homo sapiens, UniProt Q03164); assay: Epigenetic selectivity profile; assay type: biochemical
Description: as §1

SETD7 (h) = SETD7 (h) (Homo sapiens, UniProt Q8WTS6); assay: Epigenetic selectivity profile; assay type: biochemical
Description: as §1

SUV39H1 (h) = SUV39H1 (h) (Homo sapiens, UniProt O43463); assay: Epigenetic selectivity profile; assay type: biochemical
Sequence of SUV39H1 (h) (O43463 whole entry): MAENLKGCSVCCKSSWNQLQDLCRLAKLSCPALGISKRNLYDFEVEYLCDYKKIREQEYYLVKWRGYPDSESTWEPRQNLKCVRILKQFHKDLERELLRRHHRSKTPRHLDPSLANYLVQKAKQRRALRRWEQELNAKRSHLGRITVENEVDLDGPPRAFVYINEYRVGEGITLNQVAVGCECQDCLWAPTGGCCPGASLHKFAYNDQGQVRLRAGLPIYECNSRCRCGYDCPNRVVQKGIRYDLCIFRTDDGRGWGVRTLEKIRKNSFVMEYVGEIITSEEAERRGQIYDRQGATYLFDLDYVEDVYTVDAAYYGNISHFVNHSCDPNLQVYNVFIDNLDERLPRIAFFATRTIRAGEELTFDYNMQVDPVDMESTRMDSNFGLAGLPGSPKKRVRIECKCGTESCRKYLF
Description: as §1

[1] = target: sirtuin 1 (h) (inhibitor effect) (Homo sapiens, UniProt Q96EB6); assay: Epigenetic selectivity profile; assay type: biochemical
Sequence of sirtuin 1 (h) (inhibitor effect) (Q96EB6 whole entry): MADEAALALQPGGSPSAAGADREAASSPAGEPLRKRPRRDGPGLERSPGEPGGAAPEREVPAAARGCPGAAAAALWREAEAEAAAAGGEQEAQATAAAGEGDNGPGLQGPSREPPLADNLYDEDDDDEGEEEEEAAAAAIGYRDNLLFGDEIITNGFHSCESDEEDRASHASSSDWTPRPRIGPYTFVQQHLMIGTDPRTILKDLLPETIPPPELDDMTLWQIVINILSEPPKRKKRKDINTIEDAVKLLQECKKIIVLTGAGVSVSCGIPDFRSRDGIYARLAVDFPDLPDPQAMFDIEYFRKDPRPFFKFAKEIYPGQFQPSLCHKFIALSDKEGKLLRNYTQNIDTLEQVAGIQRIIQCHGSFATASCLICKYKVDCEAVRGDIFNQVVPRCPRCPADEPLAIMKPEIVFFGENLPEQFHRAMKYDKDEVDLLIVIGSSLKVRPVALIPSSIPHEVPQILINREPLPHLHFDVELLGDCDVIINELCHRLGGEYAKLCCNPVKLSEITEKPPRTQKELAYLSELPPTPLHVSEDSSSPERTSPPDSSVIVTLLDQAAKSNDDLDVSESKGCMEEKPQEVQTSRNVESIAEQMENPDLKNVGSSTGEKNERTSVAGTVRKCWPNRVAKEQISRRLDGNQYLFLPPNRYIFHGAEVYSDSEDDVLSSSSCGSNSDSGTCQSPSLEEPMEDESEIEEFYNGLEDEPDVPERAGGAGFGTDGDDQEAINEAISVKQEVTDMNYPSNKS
Description: as §1

sirtuin 2 (h) = sirtuin 2 (h) (Homo sapiens, UniProt Q8IXJ6); assay: Epigenetic selectivity profile; assay type: biochemical
Sequence of sirtuin 2 (h) (Q8IXJ6 whole entry): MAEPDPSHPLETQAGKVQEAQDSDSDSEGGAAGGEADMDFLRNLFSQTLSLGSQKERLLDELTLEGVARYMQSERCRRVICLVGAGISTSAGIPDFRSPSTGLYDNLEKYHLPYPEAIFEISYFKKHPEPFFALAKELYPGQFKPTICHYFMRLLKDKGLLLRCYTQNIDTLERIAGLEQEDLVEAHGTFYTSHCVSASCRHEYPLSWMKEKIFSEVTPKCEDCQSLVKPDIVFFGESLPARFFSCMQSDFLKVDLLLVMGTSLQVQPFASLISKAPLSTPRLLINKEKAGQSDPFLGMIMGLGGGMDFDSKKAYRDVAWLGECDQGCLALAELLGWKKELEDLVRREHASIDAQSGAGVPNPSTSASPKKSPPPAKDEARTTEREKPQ
Description: as §1

H3K9 ac = assay: Epigenetic selectivity profile; assay type: biochemical; design: dose or concentration left out as unconfirmed
Description: as §1

[2] = test system: 5-HT (non-selective) (agonist radioligand); assay: CEREP Diversity Panel; assay type: binding; design: dose or concentration left out as unconfirmed
Description: as §1

[3] = test system: Ca 2+ channel (L, dihydropyridine site) (antagonist radioligand); assay: CEREP Diversity Panel; assay type: binding; design: dose or concentration left out as unconfirmed
Description: as §1

[4] = test system: Ca 2+ channel (L, diltiazem site) (benzothiazepines) (antagonist radioligand); assay: CEREP Diversity Panel; assay type: binding; design: dose or concentration left out as unconfirmed
Description: as §1

[5] = test system: Ca 2+ channel (L, verapamil site) (phenylalkylamine) (antagonist radioligand); assay: CEREP Diversity Panel; assay type: binding; design: dose or concentration left out as unconfirmed
Description: as §1

[6] = test system: Cl- channel (GABA-gated) (antagonist radioligand); assay: CEREP Diversity Panel; assay type: binding; design: dose or concentration left out as unconfirmed
Description: as §1

[7] = test system: GABA (non-selective) (agonist radioligand); assay: CEREP Diversity Panel; assay type: binding; design: dose or concentration left out as unconfirmed
Description: as §1

[8] = test system: KV channel (antagonist radioligand); assay: CEREP Diversity Panel; assay type: binding; design: dose or concentration left out as unconfirmed
Description: as §1

[9] = test system: NMDA (antagonist radioligand); assay: CEREP Diversity Panel; assay type: binding; design: dose or concentration left out as unconfirmed
Description: as §1

[10] = test system: Na+ channel (site 2) (antagonist radioligand); assay: CEREP Diversity Panel; assay type: binding; design: dose or concentration left out as unconfirmed
Description: as §1

[11] = test system: P2X (agonist radioligand); assay: CEREP Diversity Panel; assay type: binding; design: dose or concentration left out as unconfirmed
Description: as §1

[12] = test system: kainate (agonist radioligand); assay: CEREP Diversity Panel; assay type: binding; design: dose or concentration left out as unconfirmed
Description: as §1

## Nc1nnc(CN[C@@H]2C[C@H]2c2ccc(OCc3ccccc3)cc2)o1 [ORY-2001, vafidemstat]
rKDM1A
  KI (inactivation): 1800 nM
KDM1A
  adduct formation with KDM1A: adduct formation
(h)p300
  inhibition at 10 µM: 0%
DNMT1 (h)
  inhibition at 10 µM: 15%
DOT1L (h)
  inhibition at 10 µM: -1%
FBXL10 (h)
  inhibition at 10 µM: 8%
HDAC11 (h)
  inhibition at 10 µM: -2%
HDAC3 (h)
  inhibition at 10 µM: -1%
HDAC4 (h)
  inhibition at 10 µM: 0%
HDAC6 (h)
  inhibition at 10 µM: 0%
JARID1A (h)
  inhibition at 10 µM: 2%
JMJD1A (h)
  inhibition at 10 µM: -11%
JMJD2A (h)
  inhibition at 10 µM: 7%
JMJD3 (h)
  inhibition at 10 µM: 4%
MLL complex (h)
  inhibition at 10 µM: 3%
SETD7 (h)
  inhibition at 10 µM: -3%
SUV39H1 (h)
  inhibition at 10 µM: -7%
[1]
  inhibition at 10 µM: 1%
Sirtuin 2 (h)
  inhibition at 10 µM: 5%
H3K9 ac
  % inhibition: -5%
[2]
  % inhibition: 5%
[3]
  % inhibition: -1%
[4]
  % inhibition: 0%
[5]
  % inhibition: 5%
[6]
  % inhibition: 31%
[7]
  % inhibition: 6%
[8]
  % inhibition: -4%
[9]
  % inhibition: 6%
[10]
  % inhibition: 12%
[11]
  % inhibition: 3%
[12]
  % inhibition: 2%

Source: publication PMC7259601 (PLoS ONE, 2020)
